What all share (type): cell-based, human
For assay [1], the system named is IL-4 mRNA. Put plainly: PHA-induced IL-4 mRNA expression in heparinized whole blood ex vivo. The note with it: for ΔΔCt (mean ± standard deviation, n = 3), IL-4 mRNA: supplement 30 min, then 100 μg/mL PHA 2 h, concentrations per footnote. The protocol: (§1) In this embodiment, phytohemagglutinin-induced gene expression of interleukin-2 (IL-2), interleukin-4 (IL-4), and tumor necrosis factor-α (TNF-α) were quantitated in the following manner. Fifty μL of heparinized whole blood was incubated with various dietary supplements for a period of 30 minutes. The following supplements were employed: vitamins A, C, and D, epigallocatechin gallate (from green tea), genistein (from soy), and curcumin (from the spice turmeric). Vitamin A is known to stimulate the immune system. […] Vitamin D appears to have protective effects against certain cancers. Epigallocatechin gallate is a powerful antioxidant, appears to reduce the multidrug resistance found in cancer cells, and preferentially induces apoptosis in neoplastic cells. Genistein has been found in some studies to have anticarcinogenic activity; possible mechanisms of action include upregulation of apoptosis, inhibition of angiogenesis, inhibition of DNA topoisomerase II and inhibition of protein tyrosine kinases. Curcumin has proapoptotic effects in neoplastic cells and interferes with the activity of the transcription factor NF-κB, which is often highly overexpressed in such cells.
(§2) After incubation with the dietary supplement, 100 μg/mL phytohemagglutinin (PHA) was added and incubation was continued for an additional 2 hours at 37° C. The concentration of each dietary supplement (see Table I, note) was slightly higher than reported blood levels. Then mRNA was purified, cDNA was synthesized, and the levels of IL-2, IL-4, and TNF-α were quantitated by TaqMan real time polymerase chain reaction (PCR) (see Holland, et al., “Detection of specific polymerase chain reaction product by utilizing the 5′ to 3′ exonuclease activity of Thermus aquaticus DNA polymerase,” Proc Natl Acad Sci USA 1991; 88: 7276-80), as described below.
(§3) The mRNA and cDNA were prepared from the whole blood that was exposed to the dietary components, as well as the whole blood which remained unexposed. In brief, home-made 96-well filterplates were placed over collection plates, and 150 μl 5 mM Tris, pH 7.4, was applied. Following centrifugation at 120×g for 1 min at 4° C., 50 μl of blood samples were applied to each well and immediately centrifuged at 120×g for 2 min at 4° C., followed by washing of each well with 300 μl PBS once with centrifugation at 2000×g for 5 min at 4° C. Then, 60 μl stock lysis buffer, containing for example 0.5% N-Lauroylsarcosine, 4×SSC, 10 mM Tris HCl, pH 7.4, 1 mM EDTA, 0.1% IGEPAL CA-630, and 1.791 M guanidine thiocyanate, supplemented with 1% 2-mercaptoethanol (Bio Rad, Hercules, Calif., USA), 0.5 mg/ml proteinase K (Pierce, Rockford, Ill., USA), 0.1 mg/ml salmon sperm DNA (5 Prime Eppendorf/Brinkmann, Westbury, N.Y., USA), 0.1 mg/ml E. coli tRNA (Sigma), a cocktail of 10 mM each of the specific reverse primers shown in Table 2, and standard RNA34 oligonucleotides, were applied to the filterplates, followed by incubation at 37° C. for 10 min. The filterplates were then placed over oligo(dT)-immobilized microplates (GenePlate, RNAture), and centrifuged at 2000×g for 5 min at 4° C. Following overnight storage at 4° C., the microplates were washed with 100 μl plain lysis buffer 3 times, followed by 150 μl of wash buffer (0.5 M NaCl, 10 mM Tris, pH 7.4, 1 mM EDTA) 3 times at 4° C. The cDNA was directly synthesized in each well by adding 30 μl of buffer containing 1×RT-buffer, 1.25 mM each of dNTP, 4 units rRNasin, and 80 units of MMLV reverse transcriptase (Promega) (without primers), and incubation at 37° C. for 2 hours. The specific primer-primed cDNA existed in solution, and oligo(dT)-primed cDNA stayed immobilized in the microplate. […]

In assay [2] the test system is TNF-α mRNA. Put plainly: PHA-induced TNF-α mRNA expression in heparinized whole blood ex vivo. As to conditions: supplement 30 min, then 100 μg/mL PHA 2 h, concentrations per footnote. The procedure: as §1, §2, §3
The subject of assay [3] is IL-2 mRNA. Put plainly: PHA-induced IL-2 mRNA expression in heparinized whole blood ex vivo. The note with it: supplement 30 min, concentrations per footnote. The protocol:
as §1, §2, §3

For assay [4], the system named is CD32A mRNA (IgG Fc receptor). Briefly: CD32A mRNA level in leukocytes after exposure of whole blood to dietary components (no stimulating agent). As to conditions: one individual; 3 hours at 37° C.; PBS control. The protocol:
In brief, home-made 96-well filterplates were placed over collection plates, and 150 μl 5 mM Tris, pH 7.4, was applied. Following centrifugation at 120×g for 1 min at 4° C., 50 μl of blood samples were applied to each well and immediately centrifuged at 120×g for 2 min at 4° C., followed by washing of each well with 300 μl PBS once with centrifugation at 2000×g for 5 min at 4° C. […] The filterplates were then placed over oligo(dT)-immobilized microplates (GenePlate, RNAture), and centrifuged at 2000×g for 5 min at 4° C. Following overnight storage at 4° C., the microplates were washed with 100 μl plain lysis buffer 3 times, followed by 150 μl of wash buffer (0.5 M NaCl, 10 mM Tris, pH 7.4, 1 mM EDTA) 3 times at 4° C. […] The specific primer-primed cDNA existed in solution, and oligo(dT)-primed cDNA stayed immobilized in the microplate. […] Each gene was amplified in separate wells. The Ct was determined by analytical software (SDS, ABI).

Take `O=C1O[C@H]([C@@H](O)CO)C(O)=C1O` [VC, vitamin C]: the “ΔΔCt (mean ± standard deviation, n = 3), IL-4 mRNA” value in assay [1] (Subject 1) is on record as −2.20 ± 0.72; in assay [1] (Subject 2), −0.86 ± 0.62; in assay [1] (Subject 3) it was −0.77 ± 0.40; in assay [1] (Subject 4), −0.43 ± 0.17; in assay [1] (Subject 5) it was −1.22 ± 0.17; in assay [1] (Subject 6) it was −0.77 ± 0.09. For the same molecule, the “ΔΔCt (mean ± standard deviation, n = 3), IL-4 mRNA” value in assay [1] (Subject 7) is reported as −1.30 ± 0.22. In addition, in assay [1] (summary over 7 subjects of Table I), the “effect on PHA-induced IL-4 expression, in words” value was “enhanced IL-4 expression, with 1-3 exceptions”. In addition, the “ΔΔCt (mean ± standard deviation, n = 3), TNFα mRNA” value is −1.82 ± 0.65 in assay [2] (Subject 1); 0.10 ± 1.14 in assay [2] (Subject 2); −0.04 ± 0.27 in assay [2] (Subject 3); 0.09 ± 0.16 in assay [2] (Subject 4); −1.21 ± 0.14 in assay [2] (Subject 5); −0.48 ± 0.04 in assay [2] (Subject 6). In addition, the “ΔΔCt (mean ± standard deviation, n = 3), TNFα mRNA” value in assay [2] (Subject 7) is on record as −0.40 ± 0.15. The “ΔΔCt (mean ± standard deviation, n = 3), IL-2 mRNA” value in assay [3] (Subject 1, then 100 μg/mL PHA 2 h 37° C., negative = increased expression) is −0.18 ± 0.54; in assay [3] (Subject 2, then 100 μg/mL PHA 2 h), 0.00 ± 0.60; in assay [3] (Subject 3, then 100 μg/mL PHA 2 h), 1.04 ± 0.21; in assay [3] (Subject 4, then 100 μg/mL PHA 2 h) it was 1.47 ± 0.19; in assay [3] (Subject 5, then 100 μg/mL PHA 2 h), −0.80 ± 0.13; in assay [3] (Subject 6, then 100 μg/mL PHA 2 h), 1.02 ± 0.05. Besides, the “ΔΔCt (mean ± standard deviation, n = 3), IL-2 mRNA” value in assay [3] (Subject 7, then 100 μg/mL PHA 2 h) is 0.07 ± 0.27.
As for `CCCCC/C=C\C/C=C\C/C=C\CCCCC(=O)O` [γ-linoleic acid, γ-linoleic acids], in assay [4], the “conclusion from CD32A mRNA levels (FIG. 2), in words” value was “would be suitable for use in this individual in a diet optimized for anti-cancer activity”.
Still for that read-out and setting: to vitamin E belongs “would be suitable for use in this individual in a diet optimized for anti-cancer activity”.

Source of the values: US20080206761A1, “Ex Vivo Gene Expression in Whole Blood as a Model of Assessment of Individual Variation to Dietary Supplements” (priority 2005, published 2008).
